The text below walks through data of US9363996B2, “Compositions and method for blocking ethylene response in field crops using 3-(cy-clopropyl-l-enyl)-propanoic salt” (Yissum Research Development Company of the Hebrew …, priority 2009, dated 2016).

One assay relates to tobacco seedlings. Put plainly: Ethylene-induced chlorophyll degradation in tobacco seedling leaves. It is filed as in vivo, tobacco (Nicotiana tabacum var. 'Samsun'). As to the method:
(1) Abscission—This is a very sensitive model system for studying the effects of plant hormones. Ethylene induces the process of abscission, while auxin delays it. In the laboratory the experimental system is based on plant organ explants, which include the abscission zone. Abscission is induced by exposure to ethylene and at the termination of the experiment the number of abscised organs, usually either leaf blades or petioles are counted and the fraction of abscission is calculated. In the case of fruit, the decrease in fruit retention force is analyzed. In cotton, when WS-CPD (the ethylene-action antagonist herein disclosed) is tested, the whole plants or explants are pretreated by spraying with the antagonist, dissolved in a phosphate buffer solution (10-20 mM, pH 7.0) including 0.1% commercially available Kinetic™ as surfactant, and left to incubate for a predetermined time, usually between 6 and 24 h. The plants or explants are then further exposed for 24 h to ethylene gas (5 to 20 μL L^−1). The plants or explants are then ventilated and incubated for the required time under controlled conditions. At the end of the experiment the percentage of abscission is determined. (2) Chlorophyll degradation—This is a standard model for studying senescence. Plant material (whole plants, excised leaves or leaf discs) are pretreated. In cotton, tobacco and wheat, when WS-CPD is tested, the whole plants or explants are pretreated by spraying with the antagonist, dissolved in phosphate buffer solution (10-20 mM, pH 7.0) including 0.1% commercially available Kinetic™ surfactant, and left to incubate for a predetermined time, usually between 6 and 241. The plants or explants are then further exposed for 24 h to ethylene gas (1 to 100 μL L^−1), or sprayed with Ethephon™ (wheat; 250 to 750 μL L^−1). The plants or explants are then ventilated and incubated for the required time under controlled conditions. At the end of the experiment a dimethylsulfoxide (DMSO) extract of the plant tissue is prepared, and the chlorophyll content of the extract is determined by spectrophotometric analysis. The chlorophyll content is reported either on a fresh, dry weight basis, or on a surface area basis. (3) Epinasty—This is also one of the classical methods for studying ethylene effects in plants. The extent of ethylene-induced epinasty of leaves is determined by measuring the change of the angle between the petiole and the stem shoot or blade. After exposure of the intact plant to ethylene, the upright grown leaves bend downward. The increase in the angle values (degrees) between petiole and the stem is used as a measure of the effect of the ethylene. […]

The next assay concerns wheat plants. The assay can be described thus: Ethephon-induced flag leaf epinasty of wheat plants after spike heading. The note with it: WS-CPD 135 and 415 μg mL^−1 pretreatment; Ethephon 750 μL L^−1. It is filed as in vivo, wheat (Triticum turgidum var. 'Gdera'). On the procedure: (1) Abscission—This is a very sensitive model system for studying the effects of plant hormones. Ethylene induces the process of abscission, while auxin delays it. In the laboratory the experimental system is based on plant organ explants, which include the abscission zone. Abscission is induced by exposure to ethylene and at the termination of the experiment the number of abscised organs, usually either leaf blades or petioles are counted and the fraction of abscission is calculated. In the case of fruit, the decrease in fruit retention force is analyzed. In cotton, when WS-CPD (the ethylene-action antagonist herein disclosed) is tested, the whole plants or explants are pretreated by spraying with the antagonist, dissolved in a phosphate buffer solution (10-20 mM, pH 7.0) including 0.1% commercially available Kinetic™ as surfactant, and left to incubate for a predetermined time, usually between 6 and 24 h. […] At the end of the experiment the percentage of abscission is determined. […] At the end of the experiment a dimethylsulfoxide (DMSO) extract of the plant tissue is prepared, and the chlorophyll content of the extract is determined by spectrophotometric analysis. […] The extent of ethylene-induced epinasty of leaves is determined by measuring the change of the angle between the petiole and the stem shoot or blade. […]

For `O=C([O-])CCC1=CC1.[Na+]` [WS-CPD, 3-cyclopropyl-1-enyl-propanoic sodium salt], the ethylene-induced chlorophyll degradation result was “completely reversed” in the assay on tobacco seedlings (WS-CPD 14 μg mL^−1 pretreatment spray, young and mature leaves); “less effective” in the assay with tobacco seedlings (higher concentrations of WS-CPD). In addition, the “Ethephon-induced flag leaf epinasty” value in the assay with wheat plants is reported as “partly protected”.
